{"source": "patent EP4420661B1", "about": "“SMALL MOLECULES TARGETING GLYCOPROTEIN VI AS ANTIPLATELET AGENTS FOR USE IN THE PREVENTION AND/OR TREATMENT OF THROMBOSIS AND ASSOCIATED PATHOLOGIES” (Universidade de Santiago de Compostela, priority 2023, dated 2024)", "type_in_all_cases": "in vitro ADME", "key": {"Plasma protein [1]": {"test_system": "Plasma protein", "test": "plasma protein binding, Rapid Equilibrium Dialysis (RED), mouse", "details": "5 µM, 4h at 37°C, (*) low recovery for (If)", "experimental": "(§1) Plasma from Seralab was employed in the assay and was carried out by employing Rapid Equilibrium Dialysis (RED) from Thermo Scientific.\n(§2) The compounds were dissolved at 5 µM in plasma and added to the corresponding insert of the RED device. Dialysis buffer was added to the corresponding insert of the RED device. Plate was incubated for 4h at 37°C.\n(§3) After the incubation period 50 µL aliquots of each chamber were transferred to empty vials. 50 µL of dialysis buffer were added to the plasma samples and 50 µL of plasma were added to the buffer samples. 300 µL of acetonitrile were added to all the samples and centrifuged at 4000 rpm 100 µL aliquots of the supernatants were transferred to a LC analysis plate. Samples were analyzed in a UPLC/MS/MS. Stationary phase: Acquity UPLC® BEHC18 1,7 µm (2.1 mm x 50 mm) (Waters). Gradient: A (H2O + 0.1% Formic acid); B (ACN + 0.1% Formic acid); Flow: 0.6mL/min Table 8: UPLC gradient / Protein binding assay\n(§4) The chromatographic equipment employed was an ACQUITY UPLC / Xevo TQD System. Compound concentrations were calculated from the MS peak areas. Table 9: Plasma protein binding of the compounds of formula (I) in rat, mice, dogs and humans / (*) low recovery"}, "[2]": {"test": "plasma protein binding, Rapid Equilibrium Dialysis (RED), mouse", "details": "4h at 37°C, (*) low recovery for (If)", "experimental": "as §1, §2, §3, §4"}, "Plasma protein [3]": {"test_system": "Plasma protein", "test": "plasma protein binding, Rapid Equilibrium Dialysis (RED), human", "details": "5 µM, 4h at 37°C", "experimental": "as §1, §2, §3, §4"}, "[4]": {"test": "plasma protein binding, Rapid Equilibrium Dialysis (RED), human", "details": "4h at 37°C", "experimental": "as §1, §2, §3, §4"}, "Plasma protein [5]": {"test_system": "Plasma protein", "test": "plasma protein binding, Rapid Equilibrium Dialysis (RED), dog", "details": "5 µM, 4h at 37°C", "experimental": "as §1, §2, §3, §4"}, "[6]": {"test": "plasma protein binding, Rapid Equilibrium Dialysis (RED), dog", "details": "4h at 37°C", "experimental": "as §1, §2, §3, §4"}, "Plasma protein [7]": {"test_system": "Plasma protein", "test": "plasma protein binding, Rapid Equilibrium Dialysis (RED), rat", "details": "5 µM, 4h at 37°C", "experimental": "as §1, §2, §3, §4"}, "[8]": {"test": "plasma protein binding, Rapid Equilibrium Dialysis (RED), rat", "details": "4h at 37°C", "experimental": "as §1, §2, §3, §4"}}, "data": [{"smiles": "O=C1NC(=O)C(c2ccccc2)(c2ccccc2)N1", "note": "[Phenytoin, reference compound]", "values": [{"measurement": "Unbound fraction", "setting": "Plasma protein [1]", "result": 17.94, "unit": "%"}, {"measurement": "fraction unbound at 4 h, 5 µM", "setting": "[2]", "result": 0.179}, {"measurement": "Unbound fraction", "setting": "Plasma protein [3]", "result": 17.77, "unit": "%"}, {"measurement": "fraction unbound at 4 h, 5 µM", "setting": "[4]", "result": 0.178}, {"measurement": "Unbound fraction", "setting": "Plasma protein [5]", "result": 18.94, "unit": "%"}, {"measurement": "fraction unbound at 4 h, 5 µM", "setting": "[6]", "result": 0.189}, {"measurement": "Unbound fraction", "setting": "Plasma protein [7]", "result": 13.76, "unit": "%"}, {"measurement": "fraction unbound at 4 h, 5 µM", "setting": "[8]", "result": 0.138}]}]}
